The record followed here is publication PMC7394005, “Assessing the Selectivity of FXR, LXRs, CAR, and RORγ Pharmaceutical Ligands With Reporter Cell Lines” (Frontiers in Pharmacology, 2020).

The IC50 is the concentration at which inhibition is half-maximal. The EC50 is the concentration that produces a half-maximal response.

Common to all, as to type: cell-based
In data set [1] the target is T1, human FXR (Homo sapiens, UniProt Q96RI1).
T1 construct: FXR (R193-Q486); expressed in transfected cells; host or cells: HG5LN (HeLa cells carrying the (GAL4RE)5-βGlob-Luc-SVNeo reporter)
T1 sequence (Q96RI1 193-486): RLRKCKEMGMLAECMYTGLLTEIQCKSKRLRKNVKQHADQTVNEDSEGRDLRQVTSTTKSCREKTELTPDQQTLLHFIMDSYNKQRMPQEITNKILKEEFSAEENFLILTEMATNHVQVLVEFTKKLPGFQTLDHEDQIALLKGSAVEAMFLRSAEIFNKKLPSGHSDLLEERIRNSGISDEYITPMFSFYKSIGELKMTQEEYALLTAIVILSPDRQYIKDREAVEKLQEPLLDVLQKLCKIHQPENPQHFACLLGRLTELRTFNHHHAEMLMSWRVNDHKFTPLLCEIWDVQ
Description: HG5LN GAL4-FXR reporter cell line, antagonist mode in presence of GW4064. To be noted: read-out: FXR (GW4064 100 nM) IC50; in presence of GW4064 100 nM; NE = No effect. From the text:
(§1) To construct GAL4-NR chimeras, individual LBDs of human FXR (R193-Q486), LXRα (A187-E447), LXRβ (G199-E461), CAR (M76-S348), and RORγ (S97-K518) were amplified by PCR with primers containing XhoI and SacI restriction sites (FXR), XhoI and BamHI (LXRs, CAR, RORγ) and inserted in pSG5-GAL4(DBD)-puromycin plasmid. To construct GAL4-CAR (+ APYLT) (M76-S353), the five amino acids APYLT were inserted by overlap extension PCR between amino acids P270 and D271 of CAR.
(§2) To characterize the specificity of chemicals for human FXR, LXRα, LXRβ, CAR and RORγ, we established in a similar manner HG5LN FXR, LXRα, LXRβ, CAR WT, CAR (APYLT) and RORγ reporter cell lines. […] These cells were stably transfected by pSG5-GAL4 (DBD)-NRs (LBD)-puromycin plasmid and selected in presence of 0.5 µg/ml puromycin. […] From each HG5LN NR cells, 5 to 10 clones were chosen for their ligand inducibility of luciferase expression. […] The most inducible clones were expanded and rechecked for inducibility and aliquots were frozen at different passages. One clone per receptor was maintained in culture and used for ligand screening. HG5LN cells were cultured in Dulbecco’s modified Eagle’s medium (DMEM): Nutrient Mixture F-12 (DMEM/F-12) containing phenol red and 1 g/l glucose and supplemented with 5% fetal bovine serum, 100 units/ml of penicillin, 100 µg/ml of streptomycin and 1 mg/ml geneticin, in 5% CO2 humidified atmosphere at 37°C. Stably transfected cell lines derived from HG5LN cells were cultured in the same culture medium supplemented with 0.5 µg/ml puromycin.
(§3) Individual reporter cell lines were seeded at a density of 40,000 cells per well in 96-well white opaque tissue culture plates (Greiner CellStar) in Dulbecco’s Modified Eagle Medium: Nutrient Mixture F-12 (DMEM/F-12) without phenol red and 1 g/l glucose and supplemented with 5% stripped fetal bovine serum, 100 units/ml of penicillin, 100 µg/ml of streptomycin (test medium). Chemicals to be tested were added 24h later, and cells were incubated at 37°C for 16h. Experiments were performed in quadruplicates. At the end of the incubation period, culture medium was replaced with test medium containing 0.3 mM luciferin solution. Luciferase activity was measured for 2s in intact living cells after 10 min stabilization using a Micro Beta Wallac luminometer (PerkinElmer). EC50 values were calculated using GraphPad Prism (GraphPad Software Inc).
(§4) Chemicals tested for agonism on FXR, LXRs, CAR (+ APYLT), PXR, and antagonism on CAR and RORγ were tested alone, without addition of any other ligand.
(§5) In the transactivation assay, each compound was tested at various concentrations in three independent experiments at least. For each experiment, tests were performed in quadruplicates for each concentration, and data are expressed by means values with standard deviations. Individual agonist dose–response curves, in the absence and presence of antagonist, were fitted using the sigmoid dose-response function of a graphics and statistics software program (GraphPad Prism, version 5.0). EC50 (effective concentration for half-maximal luciferase activity) and IC50 (half-maximal inhibitory concentration) values were calculated from equations used to fit the data in this graphic software. Transactivation data are presented as EC50 and IC50 values for each compound tested. To analyze significances, we compared individual compound treatments with controls using one-way analysis of variance (ANOVA) with the help of GraphPad Prism software.

The target of data set [2] is T2, human LXRβ (Homo sapiens, UniProt P55055).
T2 construct: LXRβ (G199-E461); expressed in transfected cells; host or cells: HG5LN (HeLa cells carrying the (GAL4RE)5-βGlob-Luc-SVNeo reporter)
T2 sequence (P55055 198-460 limits assumed): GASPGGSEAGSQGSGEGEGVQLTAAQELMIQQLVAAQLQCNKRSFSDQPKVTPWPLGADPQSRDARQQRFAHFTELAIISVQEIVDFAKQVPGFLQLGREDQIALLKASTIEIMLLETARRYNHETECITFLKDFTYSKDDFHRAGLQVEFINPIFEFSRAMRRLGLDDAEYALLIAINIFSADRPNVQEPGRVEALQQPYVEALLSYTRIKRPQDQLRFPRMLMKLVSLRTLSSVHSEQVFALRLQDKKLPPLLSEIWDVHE
Description: HG5LN GAL4-LXRβ reporter cell line, agonist mode. To be noted: HG5LN GAL4-LXRβ cells, tested alone; NE = No effect; read-out: LXRβ EC50.
Text: as §1, §2, §3, §4, §5

Another data set concerns the target T3, human PXR (Homo sapiens, UniProt O75469).
T3 construct: The GAL4-NR chimeric cell lines provide uniform cellular model differing just in receptor LBDs; expressed in transfected cells; host or cells: HG5LN PXR (HeLa-derived; described in Delfosse et al., 2015)
T3 sequence (O75469 146-433 limits assumed): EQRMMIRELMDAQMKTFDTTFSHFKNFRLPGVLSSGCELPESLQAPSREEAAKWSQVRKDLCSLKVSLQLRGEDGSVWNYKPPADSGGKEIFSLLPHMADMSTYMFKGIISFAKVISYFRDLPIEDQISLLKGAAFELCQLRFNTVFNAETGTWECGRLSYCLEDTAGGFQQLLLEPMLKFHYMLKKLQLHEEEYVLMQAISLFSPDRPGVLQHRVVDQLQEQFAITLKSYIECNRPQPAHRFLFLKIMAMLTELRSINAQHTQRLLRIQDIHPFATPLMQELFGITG
Description: HG5LN PXR reporter cell line, agonist mode. To be noted: NE = No effect; for EC50: HG5LN PXR cells, tested alone, read-out: PXR EC50. On the procedure:
as §2, §3, §4, §5

In data set [3] the target is T1, human FXR. Description: HG5LN GAL4-FXR reporter cell line, agonist mode (luciferase transactivation). The conditions noted are these: HG5LN GAL4-FXR cells, tested alone; NE = No effect.
Text: as §1, §2, §3, §4, §5

Data set [4] has as its target T2, human LXRβ. The data set is described as follows: HG5LN GAL4-LXRβ reporter cell line, antagonist mode in presence of T0901317. The conditions noted are these: read-out: LXRβ (T0901317 100 nM) IC50; in presence of T0901317 100 nM; NE = No effect.
Text: as §1, §2, §3, §4, §5

`O=C(Nc1ccc(C(O)(C(F)(F)F)C(F)(F)F)cc1)c1ccccc1Cl` [SR0987]: the IC50 on human FXR [1] and on human LXRβ [4] was > 10 µM throughout. The EC50 is > 10 µM on human LXRβ [2], 0.209 ± 0.0198 µM at human PXR and > 10 µM at human FXR [3]. Besides, the “PXR % max act” value at human PXR (maximal luciferase activity at 10^-5 M (10^-6 M *, 3 10^-6 M **), 100% = 3 µM SR12813, DMSO 19 ± 2) was determined as 75%.

As for `CC(=O)Nc1nc(C)c(S(=O)(=O)Nc2ccc(C(O)(C(F)(F)F)C(F)(F)F)cc2)s1` [SR1001], the IC50 on human FXR [1] and at human LXRβ [4] was > 10 µM in each case. Also, the EC50 at human LXRβ [2], on human PXR and at human FXR [3] was > 10 µM in each case.

Turning to `O=C(Nc1ccc(C(O)(C(F)(F)F)C(F)(F)F)cc1)c1ccc(C(F)(F)F)cc1` [SR1078], the IC50 on human FXR [1] and at human LXRβ [4] was > 10 µM each time. Moreover, the EC50 at human LXRβ [2], on human PXR and at human FXR [3] was > 10 µM throughout.
